In test [1] the target is T1, integrin α5β1 (fibronectin receptor purified from the human placenta) (Homo sapiens, UniProt P05556+P08648).
T1 construct: a fibronectin receptor (protein content: 52.1 μg/ml) purified from the human placenta; from tissue; host or cells: human placenta
The test is described as follows: α5β1 binding assay (fibronectin-fibronectin receptor binding assay). To be noted: fibronectin binding to human placenta fibronectin receptor; read-out: α5β1 Binding inhibitory activity. The protocol:
Integrin α5β1 antagonistic activity (lethality) was measured for the compounds according to the present invention in a fibronectin-fibronectin receptor binding assay system in accordance with the method of Kouns et al. (W. C. Kouns, D. Kirchhofer, P. Hadvary, A. Edenhofer, T. Weller, G. Pfenninger, H. R. Baumgartner, L. K. Jennings, and B. Steiner, Blood, 80, 2539-2547 (1992)).
Specifically, a fibronectin receptor (protein content: 52.1 μg/ml) purified from the human placenta by the method of Pytela et al. (R. Pytela, M. D. Pierschbacher, S. Argraves, S. Suzuki, and E. Ruoslahti, Method in Enzymology, 144, 475-489 (1987)) was diluted 25 times with TBS (20 mM Tris-HCl, 150 mM NaCl, 1 mM CaCl2, 1 mM MgCl2, pH 7.4), and distributed and coated on wells (50 μl/well) of a plate (Maxisorp, Nunc, 96 well Immuno Plate). The plate was then allowed to stand at 4° C. for one day, washed twice with TBS (200 μl/well), and then subjected to blocking with TBS (150 μl/well) containing 3% skim milk (DIFCO) at 4° C. overnight. After washing twice with TBS (200 μl/well) containing 0.05% Tween-20 and then washing twice with TBS (200 μl/well), purification was carried out according to the method of E. Engvall et al. (E. Engvall, E. Ruoslahti, and E. J. Miller, J. Exp. Med., 147, 1584-1595 (1978)), and 50 […] of fibronectin adjusted to 0.2 μg/ml by the addition of TBS (TBS-Tween) containing 0.01% Tween-20 was mixed with 50 μl of each test compound adjusted to each concentration in the wells, and a reaction was allowed to proceed at room temperature for 3 hr. After the completion of the reaction, the wells were washed five times with TBS-Tween. A solution prepared by diluting a peroxidase-labeled fibronectin antibody (CAPPEL) 500 times with TBS-Tween was added in an amount of 50 μl per well, and a reaction was allowed to proceed at room temperature for 1.5 hr. After washing five times with TBS-Tween (200 μl/well), ABTS (SIGMA) adjusted to 1 mg/ml by the addition of a ten-fold diluted POD-buffer (ZYMED) was added in an amount of 50 μl/well, and a reaction was allowed to proceed for 5 to 10 min. A 0.1 M citric acid buffer (pH 4.3) containing 0.05% NaN3 was added in an amount of 50 μl/well to stop the reaction, followed by the measurement of the absorbance at 415 nm with a microplate reader (MTP 32, Corona Electric) (reference: 675 nm). The total binding was defined as the absorbance after a reaction using 50 μl of TBS-Tween instead of the test compound, and the non-specific binding (100% inhibition) was defined as the absorbance after a reaction using 50 μl of TBS-Tween containing 2×10^−3 M RGDS. The inhibition was calculated by the following equation: [formula]
(§1) IC50 was determined from a primary regression line of the logarithm of each concentration of the test compound and the logarithm of (100−inhibition)/inhibition.

The next test addresses GP IIb/IIIa (Homo sapiens, UniProt P05106+P08514). The test can be described thus: GP IIb/IIIa antagonistic activity (method of Pharmacological Test 2 in WO 94/21599). The test is classed as binding. On the procedure: (§2) GP IIb/IIIa Antagonistic Activity and Human Platelet Aggregation Inhibitory Activity
GP IIb/IIIa antagonistic activity was measured for the compounds according to the present invention. The measurement of the GP IIb/IIIa antagonistic activity was carried out according to the method described in Pharmacological Test 2 in WO 94/21599.

Test [2] concerns the target T2, integrin αvβ3 (vitronectin receptor purified from the human placenta) (Homo sapiens, UniProt P05106+P06756).
T2 construct: a vitronectin receptor (protein content: 118 μg/ml) purified from the human placenta; from tissue; host or cells: human placenta
The test is described as follows: αvβ3 binding assay (vitronectin-vitronectin receptor binding assay). To be noted: vitronectin binding to human placenta vitronectin receptor; read-out: integrin αvβ3 antagonistic activity, IC50 value. On the procedure: Integrin αvβ3 antagonistic activity was measured for the compounds according to the present invention in a vitronectin-vitronectin receptor binding assay system in accordance with the method of Kouns et al. (W. C. Kouns, D. Kirchhofer, P. Hadvary, A. Edenhofer, T. Weller, G. Pfenninger, H. R. Baumgartner, L. K. Jennings and B. Steiner, Blood, 80, 2539-2547 (1992)).
Specifically, a vitronectin receptor (protein content: 118 μg/ml) purified from the human placenta in accordance with the method of Pytela et al. (R. Pytela, M. D. Pierschbacher, S. Argraves, S. Suzuki, and E. Ruoslahti, Method in Enzymology, 144, 475-489 (1987)) was diluted 50 times with TBS (20 mM Tris-HCl, 150 mM NaCl, 1 mM CaCl2, 1 mM MgCl2, pH 7.4), and distributed and coated on wells (50 μl/well) of a plate (Maxisorp, Nunc, 96 well Immuno Plate). The plate was then allowed to stand at 4° C. for 1 day, washed twice with TBS (200 μl/well), and then subjected to blocking with TBS (150 μl/well) containing 1% bovine serum albumin (SIGMA) at 4° C. overnight. After washing twice with TBS (200 μl/well), 50 μl of vitronectin (CALBIOCHEM) adjusted to 0.2 μg/ml by the addition of TBS (TBS-Tween) containing 0.01% Tween-20 was mixed with 50 μl of each test compound adjusted to each concentration in wells, and a reaction was allowed to proceed at room temperature for 4 hr. After the completion of the reaction, the wells were washed five times with TBS-Tween. A solution prepared by diluting anti-vitronectin rabbit antiserum (CHEMICON) 500 times with TBS-Tween was added as a primary antibody in an amount of 50 μl/well, and a reaction was allowed to proceed at room temperature for 1.5 hr. After washing five times with 200 μl/well of TBS-Tween, a peroxidase (POD)-labeled anti-rabbit IgG antibody solution (CAPPEL) diluted 500 times with TBS-Tween was added as a secondary antibody in an amount of 50 μl/well, and a reaction was allowed to proceed at room temperature for 1.5 hr. After washing five times with TBS-Tween (200 μl/well), ABTS (2,2′-azino-bis(3-ethylbenzthiazoline-6-sulfonic acid), SIGMA) was adjusted to 1 mg/ml by the addition of a ten-fold diluted POD-buffer (ZYMED), and added in an amount of 50 μl/well, and a reaction was allowed to proceed for 5 to 10 min. A 0.1 M citric acid buffer (pH 4.3) containing 0.05% NaN3 was added in an amount of 50 μl/well to stop the reaction, followed by the measurement of the absorbance at 415 nm with a microplate reader (MTP 32, Corona Electric) (reference: 675 nm). The total binding was defined as the absorbance after a reaction using 50 μl of TBS-Tween instead of the test compound, and the non-specific binding (100% inhibition) was defined as the absorbance after a reaction using 50 μl of TBS-Tween containing 2×10^−3 M RGDS. The inhibition was calculated by the following equation: [formula]
as §1

The test system of test [3] is human platelet aggregation. The test can be described thus: Human platelet aggregation inhibitory activity (method of Pharmacological Test 1 in WO 94/21599). The test is classed as cell-based. As to conditions: human platelets, read-out: inhibition of human platelet aggregation, IC5. value. On the procedure:
as §2
Human platelet aggregation inhibitory activity was measured for the compounds according to the present invention. The measurement of the human platelet aggregation activity was carried out according to the method described in Pharmacological Test 1 in WO 94/21599.

A value given as a limit tells only on which side of the number the result lay.

GP IIb/IIIa, sequence (P08514 32-887 limits assumed): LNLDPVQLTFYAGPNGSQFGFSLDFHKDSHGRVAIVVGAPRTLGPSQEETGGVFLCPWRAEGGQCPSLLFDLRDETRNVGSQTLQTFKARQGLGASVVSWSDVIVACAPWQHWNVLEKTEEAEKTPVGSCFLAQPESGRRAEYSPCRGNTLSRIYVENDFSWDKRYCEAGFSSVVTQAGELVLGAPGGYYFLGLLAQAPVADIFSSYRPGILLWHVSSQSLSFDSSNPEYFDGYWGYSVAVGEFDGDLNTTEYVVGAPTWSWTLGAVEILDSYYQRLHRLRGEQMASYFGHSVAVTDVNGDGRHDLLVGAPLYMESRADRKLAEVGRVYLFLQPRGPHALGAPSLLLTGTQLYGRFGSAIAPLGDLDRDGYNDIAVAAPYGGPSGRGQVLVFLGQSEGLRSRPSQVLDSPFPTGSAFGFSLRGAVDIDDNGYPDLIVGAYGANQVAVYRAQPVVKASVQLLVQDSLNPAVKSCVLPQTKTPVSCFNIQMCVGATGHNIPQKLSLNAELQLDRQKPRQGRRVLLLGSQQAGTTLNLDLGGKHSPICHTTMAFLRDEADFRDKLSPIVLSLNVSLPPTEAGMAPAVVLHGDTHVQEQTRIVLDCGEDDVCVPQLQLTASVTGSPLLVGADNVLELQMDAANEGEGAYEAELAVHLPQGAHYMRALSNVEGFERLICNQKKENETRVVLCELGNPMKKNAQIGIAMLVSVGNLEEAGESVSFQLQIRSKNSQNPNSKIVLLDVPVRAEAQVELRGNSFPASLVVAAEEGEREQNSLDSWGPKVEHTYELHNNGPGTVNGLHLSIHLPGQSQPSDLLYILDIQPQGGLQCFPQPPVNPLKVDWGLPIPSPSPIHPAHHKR
GP IIb/IIIa, sequence (P08514 891-1039 limits assumed): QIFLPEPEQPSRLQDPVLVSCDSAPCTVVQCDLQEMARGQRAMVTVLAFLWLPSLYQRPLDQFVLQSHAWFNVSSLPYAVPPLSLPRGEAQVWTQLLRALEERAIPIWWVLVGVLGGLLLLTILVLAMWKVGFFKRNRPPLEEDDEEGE
GP IIb/IIIa, sequence (P05106 27-788): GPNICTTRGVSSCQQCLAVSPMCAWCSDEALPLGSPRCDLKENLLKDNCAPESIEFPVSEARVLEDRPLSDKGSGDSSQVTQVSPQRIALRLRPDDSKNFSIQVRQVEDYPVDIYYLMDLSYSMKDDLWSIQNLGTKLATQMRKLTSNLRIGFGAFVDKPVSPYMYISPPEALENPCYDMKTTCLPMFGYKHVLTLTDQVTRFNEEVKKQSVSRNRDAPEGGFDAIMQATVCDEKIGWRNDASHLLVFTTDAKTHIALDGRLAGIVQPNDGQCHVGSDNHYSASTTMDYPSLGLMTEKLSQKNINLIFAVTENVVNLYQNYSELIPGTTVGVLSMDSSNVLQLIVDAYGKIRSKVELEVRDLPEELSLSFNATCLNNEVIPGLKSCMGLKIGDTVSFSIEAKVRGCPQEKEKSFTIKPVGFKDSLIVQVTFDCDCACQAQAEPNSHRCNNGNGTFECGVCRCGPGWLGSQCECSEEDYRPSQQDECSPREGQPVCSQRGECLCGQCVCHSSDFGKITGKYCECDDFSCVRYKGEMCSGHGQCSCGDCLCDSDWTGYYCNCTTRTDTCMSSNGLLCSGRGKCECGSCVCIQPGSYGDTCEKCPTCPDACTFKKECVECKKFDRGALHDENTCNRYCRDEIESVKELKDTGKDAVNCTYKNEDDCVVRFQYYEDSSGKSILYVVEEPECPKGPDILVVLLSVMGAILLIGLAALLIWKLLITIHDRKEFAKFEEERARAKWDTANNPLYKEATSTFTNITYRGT
T1 sequence (P08648 42-894 limits assumed): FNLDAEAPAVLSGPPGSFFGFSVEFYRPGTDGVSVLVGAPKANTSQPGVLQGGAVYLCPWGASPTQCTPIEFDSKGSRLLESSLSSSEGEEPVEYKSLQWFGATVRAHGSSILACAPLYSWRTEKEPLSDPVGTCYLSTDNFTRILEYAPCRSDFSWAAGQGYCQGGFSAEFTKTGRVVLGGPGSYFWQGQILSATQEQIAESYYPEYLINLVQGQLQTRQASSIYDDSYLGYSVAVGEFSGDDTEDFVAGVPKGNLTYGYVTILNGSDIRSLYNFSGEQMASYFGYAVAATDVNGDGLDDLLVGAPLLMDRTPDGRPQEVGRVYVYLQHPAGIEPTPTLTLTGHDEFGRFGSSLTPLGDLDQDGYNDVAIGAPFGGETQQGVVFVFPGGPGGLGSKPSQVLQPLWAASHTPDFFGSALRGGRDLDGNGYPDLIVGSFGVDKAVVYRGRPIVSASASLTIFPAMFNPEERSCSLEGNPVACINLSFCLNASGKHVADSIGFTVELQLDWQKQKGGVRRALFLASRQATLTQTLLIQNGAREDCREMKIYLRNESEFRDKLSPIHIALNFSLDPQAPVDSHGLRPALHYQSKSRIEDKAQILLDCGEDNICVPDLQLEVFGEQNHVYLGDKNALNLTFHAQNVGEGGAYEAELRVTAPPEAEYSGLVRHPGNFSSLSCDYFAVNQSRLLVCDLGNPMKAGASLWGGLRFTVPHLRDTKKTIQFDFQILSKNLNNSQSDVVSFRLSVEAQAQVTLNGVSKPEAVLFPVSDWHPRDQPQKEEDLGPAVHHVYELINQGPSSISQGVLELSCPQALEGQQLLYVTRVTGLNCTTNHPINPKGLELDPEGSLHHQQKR
T1 sequence (P08648 895-1049 limits assumed): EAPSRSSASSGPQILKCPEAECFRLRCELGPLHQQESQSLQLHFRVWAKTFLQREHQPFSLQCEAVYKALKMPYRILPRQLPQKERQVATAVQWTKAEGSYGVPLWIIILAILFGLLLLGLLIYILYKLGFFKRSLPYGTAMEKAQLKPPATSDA
T1 sequence (P05556 21-798): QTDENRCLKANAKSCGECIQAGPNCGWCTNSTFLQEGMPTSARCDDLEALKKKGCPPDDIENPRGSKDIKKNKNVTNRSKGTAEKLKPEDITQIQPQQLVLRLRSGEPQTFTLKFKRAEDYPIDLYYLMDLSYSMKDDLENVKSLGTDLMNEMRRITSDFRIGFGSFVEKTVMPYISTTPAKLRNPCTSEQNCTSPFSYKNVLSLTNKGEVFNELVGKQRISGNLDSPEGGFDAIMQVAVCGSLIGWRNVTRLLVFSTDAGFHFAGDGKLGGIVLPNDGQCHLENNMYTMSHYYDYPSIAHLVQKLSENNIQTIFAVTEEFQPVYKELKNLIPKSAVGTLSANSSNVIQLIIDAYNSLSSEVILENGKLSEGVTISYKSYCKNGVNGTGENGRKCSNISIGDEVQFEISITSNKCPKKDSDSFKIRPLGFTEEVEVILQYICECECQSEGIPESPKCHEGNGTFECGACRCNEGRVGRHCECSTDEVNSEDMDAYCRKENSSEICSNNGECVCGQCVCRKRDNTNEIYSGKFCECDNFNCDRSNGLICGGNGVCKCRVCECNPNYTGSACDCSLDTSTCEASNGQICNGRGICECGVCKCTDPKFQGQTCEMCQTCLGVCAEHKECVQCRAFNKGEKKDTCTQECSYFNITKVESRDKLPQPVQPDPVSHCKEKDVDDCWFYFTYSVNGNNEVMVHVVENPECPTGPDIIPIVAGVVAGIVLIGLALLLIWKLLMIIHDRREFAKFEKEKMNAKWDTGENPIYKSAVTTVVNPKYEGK
T2 sequence (P06756 31-889 limits assumed): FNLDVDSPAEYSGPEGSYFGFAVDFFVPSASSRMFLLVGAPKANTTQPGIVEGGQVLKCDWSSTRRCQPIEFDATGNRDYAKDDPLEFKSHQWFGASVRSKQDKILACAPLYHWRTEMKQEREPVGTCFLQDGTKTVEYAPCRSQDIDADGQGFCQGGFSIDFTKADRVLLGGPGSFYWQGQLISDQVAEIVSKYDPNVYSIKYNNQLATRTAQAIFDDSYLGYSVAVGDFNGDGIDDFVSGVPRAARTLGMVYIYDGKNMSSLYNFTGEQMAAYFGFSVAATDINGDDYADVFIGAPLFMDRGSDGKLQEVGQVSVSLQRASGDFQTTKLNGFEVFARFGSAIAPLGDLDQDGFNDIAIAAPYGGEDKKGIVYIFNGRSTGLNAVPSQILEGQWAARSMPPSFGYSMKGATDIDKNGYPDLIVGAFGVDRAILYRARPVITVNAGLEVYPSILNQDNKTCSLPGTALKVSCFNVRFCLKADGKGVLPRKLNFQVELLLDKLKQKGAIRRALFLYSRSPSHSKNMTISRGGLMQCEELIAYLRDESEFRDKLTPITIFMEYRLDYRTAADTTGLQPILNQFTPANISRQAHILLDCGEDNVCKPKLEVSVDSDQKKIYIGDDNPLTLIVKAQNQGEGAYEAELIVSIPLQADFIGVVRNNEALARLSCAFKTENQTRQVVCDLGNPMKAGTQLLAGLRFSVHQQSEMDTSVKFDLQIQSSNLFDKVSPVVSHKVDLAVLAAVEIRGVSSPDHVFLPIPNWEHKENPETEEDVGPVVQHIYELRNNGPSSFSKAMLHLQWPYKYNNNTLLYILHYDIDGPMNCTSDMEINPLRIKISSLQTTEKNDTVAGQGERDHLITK
T2 sequence (P06756 891-1048 limits assumed): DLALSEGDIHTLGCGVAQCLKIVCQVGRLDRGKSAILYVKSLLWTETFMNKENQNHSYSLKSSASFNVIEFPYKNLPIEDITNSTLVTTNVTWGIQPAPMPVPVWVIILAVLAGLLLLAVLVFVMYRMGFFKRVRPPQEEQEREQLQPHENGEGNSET
T2 sequence (P05106 27-788): as the sequence (P05106 27-788) above

For `O=C(NC[C@H](NS(=O)(=O)c1ccccc1)C(=O)O)c1ccc(N2CCC(NC3=NCCCN3)CC2)cc1` [Example 3, (2S)-Benzenesulfonylamino-3-[4-{4-(1,4,5,6-tetrahydropyrimidin-2-ylamino)piperidin-1-yl}benzoyl-amino]propionic acid], the IC50 in test [1] came to 1600 nM.

Turning to `O=C(NC[C@H](NS(=O)(=O)c1ccccc1)C(=O)O)c1ccc(N2CCC(Nc3nc4ccccc4[nH]3)CC2)cc1` [Example 10, (2S)-Benzenesulfonylamino-3-[4-{4-(1H-benzimidazol-2-ylamino)piperidin-1-yl}benzoylamino]-propionic acid], the IC50 in test [1] was determined as 1600 nM.

As to `O=C(N[C@@H](CNC(=O)c1ccc(N2CCC(Nc3nc4ccccc4[nH]3)CC2)cc1)C(=O)O)OCc1ccccc1` [Example 24, 3-[4-{4-(1H-Benzimidazol-2-ylamino)piperidin-1-yl}benzoylamino]-(2S)-{(benzyloxy-carbonyl)amino}propionic acid], the values for the IC50 (against GP IIb/IIIa; in test [1]) were not above 1 nM and 6900 nM, respectively.

Consider `CCCCS(=O)(=O)N[C@@H](CNC(=O)c1ccc(N2CCC(Nc3nc4ccccc4[nH]3)CC2)cc1)C(=O)O` [Example 28, (2S)-Butane-1-sulfonylamino-3-[4-{4-(1H-benzimidazol-2-ylamino)piperidin-1-yl}benzoylamino]-propionic acid], for which the IC50 against GP IIb/IIIa is not above 1 nM; in test [2], not above 1 nM; in test [1] it was 1300 nM.

`O=C(NC[C@H](NS(=O)(=O)c1ccccc1)C(=O)O)c1ccc(N2CCC(NC3=NCCN3)CC2)cc1` [Example 40, (2S)-Benzenesulfonylamino-3-[4-{4-(4.5-dihydro-1H-imidazol-2-ylamino)piperidin-1-yl}benzoyl-amino]propionic acid]: the IC50 was not above 90 nM in test [3] and not above 1 nM against GP IIb/IIIa.

With `O=C(NC[C@H](NS(=O)(=O)c1ccccc1)C(=O)O)c1ccc(N2CCC(NC3=NCCCCN3)CC2)cc1` [Example 42, (2S)-Benzenesulfonylamino-3-[4-{4-(4,5,6,7-tetrahydro-1H-[1,3]diazepin-2-ylamino)piperidin-1-yl}-benzoylamino]propionic acid], the IC50 in test [3] is not above 90 nM; on GP IIb/IIIa, not above 1 nM; in test [2], not above 1 nM.

As to `CN(C1=NCCCN1)C1CCN(c2ccc(C(=O)NC[C@H](NS(=O)(=O)c3ccccc3)C(=O)O)cc2)CC1` [Example 45, (2S)-Benzenesulfonylamino-3-[4-[4-[{N-methyl-N-(1,4,5,6-tetrahydropyrimidin-2-yl)}amino]-piperidin-1-yl]benzoylamino]propionic acid], the IC50 was not above 90 nM in test [3] and not above 1 nM at GP IIb/IIIa.

With `O=C(NC[C@H](NS(=O)(=O)c1ccccc1)C(=O)O)c1ccc(N2CCC(NC3=NCCN3)CC2)c(F)c1` [Example 54, (2S)-Benzenesulfonylamino-3-[3-fluoro-4-{4-(4,5-dihydro-1H-imidazol-2-ylamino)piperidin-1-yl}-benzoylamino]propionic acid], the results for the IC50 (in test [3]; against GP IIb/IIIa; in test [2]) were not above 90 nM, not above 1 nM and not above 1 nM, respectively.

With `Nc1ccc(S(=O)(=O)N[C@@H](CNC(=O)c2ccc(N3CCC(NC4=NCCCN4)CC3)c(F)c2)C(=O)O)cc1` [Example 68, (2S)-(4-Aminobenzenesulfonyl)amino-3-[3-fluoro-4-{4-(1,4,5,6-tetrahydropyrimidin-2-ylamino)-piperidin-1-yl}benzoylamino]propionic acid], the IC50 was not above 1 nM at GP IIb/IIIa, not above 1 nM in test [2] and 11500 nM in test [1].

Source of the values: patent publication US6420558B1, “Aminopiperidine derivates as integrin αvβ3 antagonists” (Meiji Seika Kaisha, Ltd., priority 1998, dated 2002).
